Source: patent publication US20250213527A1, “FORMULATIONS OF PSILOCYBIN ANALOGS AND METHODS OF USE” (priority 2021, published 2025)
“Also recorded” adds a separate entry of the source.

Columns and labels:
[1] = Stability on standing of amorphous form from DSC melt/crash cooling (XRPD); type: physicochemical; settings: amorphous free base from melt/crash cooling (>185 °C/30 °C)
[2] = Plasma pharmacokinetics and bioavailability in rats, oral gavage and intravenous (bolus); settings: rat plasma, Group 1, IV, psilocin + psilocin-d10 1 + 1 mg/kg; label = analyte; IAD = immediately after dosing
[3] = Psilocin-d10 pharmacokinetics in female beagle dogs, oral gavage and intravenous (bolus); settings: for AUC(0-inf) / AUC(0-t) / C0 / clearance / Cmax / Tmax / Vd / half-life / bioavailability: female, beagle, dog, plasma; for AUC(0-inf): AUC0-inf; for C0: C0, female dog plasma
[4] = Pharmacokinetics in male beagle dogs after oral administration by powder in capsule (PIC) or orally disintegrating tablet (ODT); settings: dog, plasma, 5 mg
[5] = female dog plasma, single IV bolus 0.20 mg/kg, Mean (N=3)
[6] = female dog plasma, single IV bolus 0.20 mg/kg, Median (N=3)
[7] = female dog plasma, single IV bolus 0.20 mg/kg, animal 60F
[8] = female dog plasma, single IV bolus 0.20 mg/kg, animal 61F
[9] = female dog plasma, single IV bolus 0.20 mg/kg, animal 723F
[10] = female dog plasma, single oral gavage 1.00 mg/kg, Mean (N=3)
[11] = female dog plasma, single oral gavage 1.00 mg/kg, Median (N=3)
[12] = female dog plasma, single oral gavage 1.00 mg/kg, animal 60F
[13] = female dog plasma, single oral gavage 1.00 mg/kg, animal 61F
[14] = female dog plasma, single oral gavage 1.00 mg/kg, animal 723F
[15] = iv, 0.2 mg/kg, female dog plasma, single IV bolus 0.20 mg/kg, Mean (N=3)
[16] = iv, 0.2 mg/kg, female dog plasma, single IV bolus 0.20 mg/kg, animal 61F
[17] = po, 1 mg/kg, female dog plasma, single oral gavage 1.00 mg/kg, Mean (N=3)
[18] = po, 1 mg/kg, female dog plasma, single oral gavage 1.00 mg/kg, Median (N=3)
[19] = po, 1 mg/kg, female dog plasma, single oral gavage 1.00 mg/kg, animal 60F
[20] = po, 1 mg/kg, female dog plasma, single oral gavage 1.00 mg/kg, animal 61F
[21] = po, 1 mg/kg, female dog plasma, single oral gavage 1.00 mg/kg, animal 723F

[2H]C([2H])([2H])N(C([2H])([2H])[2H])C([2H])([2H])C([2H])([2H])c1c[nH]c2cccc(O)c12 [Compound I-3, 3-(2-(bis(methyl-d3)amino)ethyl-1,1,2,2-d4)-1H-indol-4-ol]
stability of amorphous form on standing [1]: crystallized overnight to crystal polymorph pattern 2; also recorded: unstable upon standing | Tmax [2]: IAD | time of last detectable plasma level ([3]; dogs, oral administration): 8 h | time of peak plasma levels ([3]; dogs, oral administration): 0.5 h | DN AUC0-inf [3, 5]: 448 (h*ng/mL)/(mg/kg) | DN Cmax [3, 5]: 229 (ng/mL)/(mg/kg) | DN AUC0-inf [3, 6]: 479 (h*ng/mL)/(mg/kg) | DN Cmax [3, 6]: 230 (ng/mL)/(mg/kg) | DN AUC0-inf [3, 7]: 366 (h*ng/mL)/(mg/kg) | DN Cmax [3, 7]: 230 (ng/mL)/(mg/kg) | DN AUC0-inf [3, 8]: 479 (h*ng/mL)/(mg/kg) | DN Cmax [3, 8]: 220 (ng/mL)/(mg/kg) | DN AUC0-inf [3, 9]: 500 (h*ng/mL)/(mg/kg) | DN Cmax [3, 9]: 239 (ng/mL)/(mg/kg) | DN AUC0-inf [3, 10]: 405 (h*ng/mL)/(mg/kg) | DN Cmax [3, 10]: 146 (ng/mL)/(mg/kg) | DN AUC0-inf [3, 11]: 414 (h*ng/mL)/(mg/kg) | DN Cmax [3, 11]: 132 (ng/mL)/(mg/kg) | DN AUC0-inf [3, 12]: 374 (h*ng/mL)/(mg/kg) | DN Cmax [3, 12]: 132 (ng/mL)/(mg/kg) | DN AUC0-inf [3, 13]: 414 (h*ng/mL)/(mg/kg) | DN Cmax [3, 13]: 179 (ng/mL)/(mg/kg) | DN AUC0-inf [3, 14]: 426 (h*ng/mL)/(mg/kg) | DN Cmax [3, 14]: 126 (ng/mL)/(mg/kg) | AUC(0-inf) [3, 15]: 89.6 ng·h/mL | AUC(0-inf) ([3]; iv, 0.2 mg/kg, female dog plasma, single IV bolus 0.20 mg/kg, Median (N=3)): 95.8 ng·h/mL | AUC(0-inf) ([3]; iv, 0.2 mg/kg, female dog plasma, single IV bolus 0.20 mg/kg, animal 60F): 73.3 ng·h/mL | AUC(0-inf) [3, 16]: 95.8 ng·h/mL | AUC(0-inf) ([3]; iv, 0.2 mg/kg, female dog plasma, single IV bolus 0.20 mg/kg, animal 723F): 99.9 ng·h/mL | AUC(0-t) ([3]; iv, 0.2 mg/kg, AUC0-t, female dog plasma, single IV bolus 0.20 mg/kg, Mean (N=3)): 77.8 ng·h/mL | AUC(0-t) ([3]; iv, 0.2 mg/kg, AUC0-t, female dog plasma, single IV bolus 0.20 mg/kg, Median (N=3)): 80.7 ng·h/mL | AUC(0-t) ([3]; iv, 0.2 mg/kg, AUC0-t, female dog plasma, single IV bolus 0.20 mg/kg, animal 60F): 67 ng·h/mL | AUC(0-t) ([3]; iv, 0.2 mg/kg, AUC0-t, female dog plasma, single IV bolus 0.20 mg/kg, animal 61F): 80.7 ng·h/mL | AUC(0-t) ([3]; iv, 0.2 mg/kg, AUC0-t, female dog plasma, single IV bolus 0.20 mg/kg, animal 723F): 85.8 ng·h/mL | C0 ([3]; iv, 0.2 mg/kg, single IV bolus 0.20 mg/kg, Mean (N=3)): 57.3 ng/mL | C0 ([3]; iv, 0.2 mg/kg, single IV bolus 0.20 mg/kg, Median (N=3)): 62 ng/mL | C0 ([3]; iv, 0.2 mg/kg, single IV bolus 0.20 mg/kg, animal 60F): 69.5 ng/mL | C0 ([3]; iv, 0.2 mg/kg, single IV bolus 0.20 mg/kg, animal 61F): 40.5 ng/mL | C0 ([3]; iv, 0.2 mg/kg, single IV bolus 0.20 mg/kg, animal 723F): 62 ng/mL | clearance ([3]; iv, 0.2 mg/kg, CL, female dog plasma, single IV bolus 0.20 mg/kg, Mean (N=3)): 37.8 mL/min/kg | clearance ([3]; iv, 0.2 mg/kg, CL, female dog plasma, single IV bolus 0.20 mg/kg, animal 60F): 45.5 mL/min/kg | clearance ([3]; iv, 0.2 mg/kg, CL, female dog plasma, single IV bolus 0.20 mg/kg, animal 723F): 33.3 mL/min/kg | clearance ([3]; iv, 0.2 mg/kg, Clearance (CL), dogs): 37.8 mL/min/kg | Cmax ([3]; iv, 0.2 mg/kg, Cmax, female dog plasma, single IV bolus 0.20 mg/kg, Mean (N=3)): 45.8 ng/mL | Cmax ([3]; iv, 0.2 mg/kg, Cmax, female dog plasma, single IV bolus 0.20 mg/kg, Median (N=3)): 45.9 ng/mL | Cmax ([3]; iv, 0.2 mg/kg, Cmax, female dog plasma, single IV bolus 0.20 mg/kg, animal 60F): 45.9 ng/mL | Cmax ([3]; iv, 0.2 mg/kg, Cmax, female dog plasma, single IV bolus 0.20 mg/kg, animal 61F): 43.9 ng/mL | Cmax ([3]; iv, 0.2 mg/kg, Cmax, female dog plasma, single IV bolus 0.20 mg/kg, animal 723F): 47.7 ng/mL | Tmax [3, 15]: 0.333 h | Tmax [3, 16]: 0.5 h | Vd ([3]; iv, 0.2 mg/kg, Vss, female dog plasma, single IV bolus 0.20 mg/kg, Mean (N=3)): 4.01 L/kg | Vd ([3]; iv, 0.2 mg/kg, Vss, female dog plasma, single IV bolus 0.20 mg/kg, Median (N=3)): 3.96 L/kg | Vd ([3]; iv, 0.2 mg/kg, Vss, female dog plasma, single IV bolus 0.20 mg/kg, animal 60F): 3.96 L/kg | Vd ([3]; iv, 0.2 mg/kg, Vss, female dog plasma, single IV bolus 0.20 mg/kg, animal 61F): 4.28 L/kg | Vd ([3]; iv, 0.2 mg/kg, Vss, female dog plasma, single IV bolus 0.20 mg/kg, animal 723F): 3.79 L/kg | half-life ([3]; iv, 0.2 mg/kg, elimination half-life, dogs): 1.35 h | AUC(0-t) ([3]; iv, 0.2 mg/kg, mean AUC0-t, female dog plasma, single intravenous (bolus) dose): 77.8 ng·h/mL | Cmax ([3]; iv, 0.2 mg/kg, mean Cmax, female dog plasma, single intravenous (bolus) dose): 45.8 ng/mL | half-life ([3]; iv, 0.2 mg/kg, t1/2, female dog plasma, single IV bolus 0.20 mg/kg, Mean (N=3)): 1.37 h | half-life ([3]; iv, 0.2 mg/kg, t1/2, female dog plasma, single IV bolus 0.20 mg/kg, Median (N=3)): 1.41 h | half-life ([3]; iv, 0.2 mg/kg, t1/2, female dog plasma, single IV bolus 0.20 mg/kg, animal 60F): 1.16 h | half-life ([3]; iv, 0.2 mg/kg, t1/2, female dog plasma, single IV bolus 0.20 mg/kg, animal 61F): 1.55 h | half-life ([3]; iv, 0.2 mg/kg, t1/2, female dog plasma, single IV bolus 0.20 mg/kg, animal 723F): 1.41 h | Vd ([3]; iv, 0.2 mg/kg, volume of distribution at steady state (VSS), dogs, intravenous): 4.01 L/kg | AUC(0-inf) [3, 17]: 405 ng·h/mL | AUC(0-inf) [3, 18]: 414 ng·h/mL | AUC(0-inf) [3, 19]: 374 ng·h/mL | AUC(0-inf) [3, 20]: 414 ng·h/mL | AUC(0-inf) [3, 21]: 426 ng·h/mL | AUC(0-t) ([3]; po, 1 mg/kg, AUC0-t, female dog plasma, single oral gavage 1.00 mg/kg, Mean (N=3)): 387 ng·h/mL | AUC(0-t) ([3]; po, 1 mg/kg, AUC0-t, female dog plasma, single oral gavage 1.00 mg/kg, Median (N=3)): 399 ng·h/mL | AUC(0-t) ([3]; po, 1 mg/kg, AUC0-t, female dog plasma, single oral gavage 1.00 mg/kg, animal 61F): 399 ng·h/mL | AUC(0-t) ([3]; po, 1 mg/kg, AUC0-t, female dog plasma, single oral gavage 1.00 mg/kg, animal 723F): 404 ng·h/mL | Cmax ([3]; po, 1 mg/kg, Cmax, female dog plasma, single oral gavage 1.00 mg/kg, Mean (N=3)): 146 ng/mL | Cmax ([3]; po, 1 mg/kg, Cmax, female dog plasma, single oral gavage 1.00 mg/kg, Median (N=3)): 132 ng/mL | Cmax ([3]; po, 1 mg/kg, Cmax, female dog plasma, single oral gavage 1.00 mg/kg, animal 60F): 132 ng/mL | Cmax ([3]; po, 1 mg/kg, Cmax, female dog plasma, single oral gavage 1.00 mg/kg, animal 61F): 179 ng/mL | Cmax ([3]; po, 1 mg/kg, Cmax, female dog plasma, single oral gavage 1.00 mg/kg, animal 723F): 126 ng/mL | bioavailability ([3]; po, 1 mg/kg, F (Bioavailability), female dog plasma, single oral gavage 1.00 mg/kg, Mean (N=3)): 91.3% | bioavailability ([3]; po, 1 mg/kg, F (Bioavailability), female dog plasma, single oral gavage 1.00 mg/kg, Median (N=3)): 186% | bioavailability ([3]; po, 1 mg/kg, F (Bioavailability), female dog plasma, single oral gavage 1.00 mg/kg, animal 60F): 102% | bioavailability ([3]; po, 1 mg/kg, F (Bioavailability), female dog plasma, single oral gavage 1.00 mg/kg, animal 61F): 86.5% | bioavailability ([3]; po, 1 mg/kg, F (Bioavailability), female dog plasma, single oral gavage 1.00 mg/kg, animal 723F): 85.2% | Tmax [3, 17]: 0.5 h | Tmax [3, 18]: 0.5 h | Tmax [3, 19]: 0.5 h | Tmax [3, 20]: 0.5 h | Tmax [3, 21]: 0.5 h | half-life ([3]; po, 1 mg/kg, elimination half-life, dogs): 1.77 h | AUC(0-t) ([3]; po, 1 mg/kg, mean AUC0-t, female dog plasma, single oral (gavage) dose): 387 ng·h/mL | Cmax ([3]; po, 1 mg/kg, mean Cmax, female dog plasma, single oral (gavage) dose): 146 ng/mL | bioavailability ([3]; po, 1 mg/kg, mean oral bioavailability (%F), dogs, oral 1 mg/kg): 91.3% | half-life ([3]; po, 1 mg/kg, t1/2, female dog plasma, single oral gavage 1.00 mg/kg, Mean (N=3)): 1.77 h | half-life ([3]; po, 1 mg/kg, t1/2, female dog plasma, single oral gavage 1.00 mg/kg, Median (N=3)): 1.8 h | half-life ([3]; po, 1 mg/kg, t1/2, female dog plasma, single oral gavage 1.00 mg/kg, animal 60F): 1.82 h | half-life ([3]; po, 1 mg/kg, t1/2, female dog plasma, single oral gavage 1.00 mg/kg, animal 61F): 1.69 h | half-life ([3]; po, 1 mg/kg, t1/2, female dog plasma, single oral gavage 1.00 mg/kg, animal 723F): 1.8 h | Tmax [4]: 0.5 h | Tmax ([4]; oral): 1 h
